Reference: PubChem BioAssay AID1465 (SRMLSC, 2008)
pEC50: −log10 of the molar value.

What follows are compounds tested on S. cerevisiae Yfh1-off respiration, WST-1 reduction, 72 h (assay: mitochondrial function rescue without frataxin homolog – Friedreich's ataxia, plus single-dose screen, dose response (AID 1465);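 note: activators that raise dye reduction in frataxin-depleted yeast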).

In order of rising pEC50:
1. CCC(C(=O)O)N1C(=O)/C(=C/c2cccn2C)SC1=S (stereo not given)  4.01
2. CN1/C(=C\C=C2C(=O)NC(=O)NC2=O)C(C)(C)c2ccccc21  4.01
3. O=C1NC(=O)C(=Cc2ccc(N3CCOCC3)o2)C(=O)N1  4.01
4. Oc1ccc(CN2CCC(Cc3ccccc3)CC2)c2cccnc12  4.01
5. CCOC(=O)/C(C#N)=C\C=C1C=CN(C)C=C1  4.02
6. CC1=C(C)C(=O)C(CCCCC#CCCCC#CCO)=C(C)C1=O  4.02
7. CC1=CC(=Cc2sc3ccccc3[n+]2C)C=C(C)O1  4.03
8. Cn1cccc1/C=C1\SC(=S)N(CC(=O)O)C1=O  4.04
9. CCN1/C(=C\C=C(C(C)=O)C(C)=O)Sc2ccccc21  4.06
10. CCOC(=O)c1c(C)oc2c1c(CN1CCN(CCO)CC1)c(O)c1ccccc12  4.07
11. O=C(COc1ccc(Cl)cc1Cl)NNC(=S)Nc1ccc(F)cc1  4.08
12. CC[n+]1c(C=C2C=C(C)OC(C)=C2)sc2ccccc21  4.08
13. Cc1coc2c1C(=O)C(=O)c1c-2ccc2c(C)cccc12  4.10
14. O=C1c2ccccc2NC(c2ccc(-c3cccc(Cl)c3)o2)N1O (stereo not given)  4.10
15. O=C(O)c1cccc(NC(=S)N/N=C/c2ccccn2)c1  4.11
16. CCN(CC)c1ccc(/C=N/NC(=O)c2cccc(S(=O)(=O)Nc3ccccc3OC)c2)c(O)c1  4.12
17. COc1ccc(Cn2c(O)c(/C=N/NC(=O)c3cccnc3)c3ccccc3c2=O)cc1  4.12
18. CC1CC(=O)c2c(cc3c(-c4c(O)cc(O)c5c(O)c6c(cc45)OC(C)CC6=O)c(O)cc(O)c3c2O)O1 (stereo not given)  4.12
19. O=C(N/N=C/c1c(O)n(Cc2ccccc2)c(=O)c2ccccc12)c1cccnc1  4.14
20. O=C(Cn1nc(Cl)nc1Cl)c1cc2ccccc2oc1=O  4.14
21. O=C1C(Cl)=C(Nc2ccccc2)C(=O)c2ccccc21  4.17
22. CCC(=O)NC(c1cccs1)c1cc(Cl)c2cccnc2c1O (stereo not given)  4.18
23. Cc1ccccc1C(=O)/C(C#N)=N/Nc1c(C)n(C)n(-c2ccccc2)c1=O  4.22
24. O=C(NNC1=C(C(=O)C(F)(F)F)CCC1)c1ccc(Br)cc1  4.22
25. COc1ccc(C2=NN(c3nc4ccccc4s3)C(=O)C2)cc1  4.23
26. COc1cc(/C=N/NC(=O)c2cncc(Br)c2)cc([N+](=O)[O-])c1O  4.24
27. CCN1CCS/C1=C/C=C/C1=[N+](CC)CCS1  4.25
28. CCCC(=O)NC(c1ccco1)c1cc([N+](=O)[O-])c2cccnc2c1O (stereo not given)  4.26
29. CCN1CCS/C1=C\C=C\C1=[N+](CC)CCS1  4.27
30. Cc1c(N/N=C(\C#N)C(=O)c2ccccc2)c(=O)n(-c2ccccc2)n1C  4.28
31. O=[N+]([O-])c1cccc(/C=N/Nc2nc(NCc3ccccc3)nc(N3CCOCC3)n2)c1O  4.29
32. O=c1cc(-c2ccccc2)[nH]n1-c1nc2ccccc2s1  4.31
33. O=C(O)c1cccc2nc3ccccc3nc12  4.32
34. Cc1cc(C(=O)N/N=C/c2ccc(O)c(O)c2O)c(C)n1-c1ccccc1  4.34
35. CC1=CC(=O)c2ccccc2C1=O  4.34
36. NC(=S)n1[nH]c(-c2ccc([N+](=O)[O-])cc2)c(N=Nc2cccc([N+](=O)[O-])c2)c1=O  4.36
37. COc1ccccc1N1CCN(Cc2ccc(O)c3ncccc23)CC1  4.37
38. c1ccc(-c2ccc(SCc3cccnc3)nn2)nc1  4.37
39. CCC(=O)NC(c1ccc(OC)cc1)c1cc(Cl)c2cccnc2c1O (stereo not given)  4.42
40. O=C1C=C(NCc2ccccc2)c2ccccc2C1=O  4.44
41. CCCCC(=O)NC(c1ccccc1OC)c1ccc2cccnc2c1O (stereo not given)  4.44
42. CCOC(=O)C1=C(Cc2ccc(F)cc2)C(=O)c2ccccc2C1=O  4.44
43. Cc1oc2c(c1C(=O)c1ccccc1)C(=O)C(=O)c1ccccc1-2  4.45
44. O=C(C1=C(c2ccccc2)C(=O)c2ccccc2C1=O)c1ccccc1  4.45
45. COc1cc([N+](=O)[O-])cc(/C=N/NC(=O)c2cc(-c3ccccc3)nc3ccccc23)c1O  4.45
46. CCCCCC(=O)NNC(=S)NC(C)=O  4.46
47. CCC(=O)NC(c1cccs1)c1cc([N+](=O)[O-])c2cccnc2c1O (stereo not given)  4.46
48. Cc1ccc(NS(=O)(=O)c2cc([N+](=O)[O-])ccc2NNC(=S)Nc2cccc(Cl)c2)c(C)c1  4.51
49. CCC(=O)NC(c1ccc(OC)c(OC)c1)c1cc(Cl)c2cccnc2c1O (stereo not given)  4.53
50. COc1ccccc1C(=O)NNC1=C(C(=O)C(F)(F)F)CCC1  4.60
51. CC(=O)NC(c1cccs1)c1cc([N+](=O)[O-])c2cccnc2c1O (stereo not given)  4.60
52. CC(=O)NC(c1ccc(C)cc1)c1cc([N+](=O)[O-])c2cccnc2c1O (stereo not given)  4.60
53. CCC(=O)NC(c1ccc(C)cc1)c1cc([N+](=O)[O-])c2cccnc2c1O (stereo not given)  4.61
54. COC(=O)c1ccc(=O)c2nc3/c(=C/O)c(O)cc(=O)c3[nH]c12  4.66
55. Cc1c(N/N=C(\C#N)C(=O)c2ccc(Cl)cc2)c(=O)n(-c2ccccc2)n1C  4.67
56. CCCC(=O)NC(c1cccs1)c1cc([N+](=O)[O-])c2cccnc2c1O (stereo not given)  4.68
57. O=[N+]([O-])c1ccc(Sc2cccc[n+]2[O-])c2nonc12  4.77
58. CC1=C(C)C(=O)C(N2CCOCC2)=CC1=O  4.85
59. CCCCC(=O)NC(c1cccs1)c1cc(Cl)c2cccnc2c1O (stereo not given)  5.07
60. O=C(CCc1ccccc1)NC(c1cccs1)c1cc(Cl)c2cccnc2c1O (stereo not given)  5.13
